Measurements taken from publication PMC11373624, “Development and preclinical characterization of a novel radiotheranostic EphA2-targeting bicyclic peptide” (Theranostics, 2024).
Numbered stars: 1 amine (or outer) side, 2 acyl side, 3 side chain; on linkers, the order of the positions; unused ones are H or OH. Bridge positions count the residues as written; N and C are the ends. Square brackets hold non-standard residues; d marks the D form. Peptide text beside a SMILES is read from it. * marks the point of attachment. DOTA = O=C(O)CN1CCN(CC(=O)O)CCN(CC(=O)*)CCN(CC(=O)O)CC1; TATA = O=C(CC[*:1])N1CN(C(=O)CC[*:2])CN(C(=O)CC[*:3])C1; Hyp = O=C(O)[C@@H]1C[C@@H](O)CN1; hArg = N=C(N)NCCCC[C@H](N)C(=O)O; Cba = N[C@@H](CC1CCC1)C(=O)O; βAla = NCCC(=O)O; Sar = CNCC(=O)O

Key:
[1] = target: T1, Mouse EphA2 (Mus musculus, UniProt Q03145); test: SPR binding to mouse EphA2
T1 construct: Fc; purchased R&D Systems 639-A2
Experimental: (§1) The commercial source details of the recombinant proteins used in SPR were as follows: Human proteins: EphA1 (15789-H02H, Sino Biological), EphA3 (644-A3, R&D Systems), EphA6 (5606-A6, R&D Systems), EphA7 (6756-A7, R&D Systems). Mouse proteins: Mouse EphA2 was purchased from R&D Systems (Product number 639-A2). Mouse EphA2-Fc was resuspended as per manufacturer's recommendations and material was passed through a SuperdexS200 column to remove aggregates.
(§2) SPR experiments were performed on a Biacore 8K+ (Cytiva Life Sciences, USA) instrument, with methods matched for both human and mouse EphA2 protein. Protein was captured on to a Cytiva NTA sensor chip (Cytiva Life Sciences), via the expressed His-tag; this was followed by primary amine coupling chemistry to covalently immobilize the protein to the chip at 25°C. Initially the surface was injected with 0.5 mM NiCl2 for 2 minutes, followed by activation of the carboxymethyl dextran surface for 7 minutes using an injection of a 1:1 ratio of 0.4 M 1-ethyl-3-(3-dimethylaminopropyl) carbodiimide hydrochloride (EDC)/0.1 M N-hydroxy succinimide (NHS) at a flow rate of 10 µL/min.
Human EphA2 protein was captured to the Ni-NTA surface to a level of 200-300 RU and Mouse EphA2 to 500-800 RU; the residual activated groups were then blocked with a 7 minute injection of 1 M ethanolamine (pH 8.5):HBS-N (1:1). […]

[2] = in vitro; format: in vitro ADME; details: plasma
Experimental: To determine binding to plasma proteins, BCY18469 was labeled with ^68Ga (apparent molar activity 1 GBq/µmol). Thereafter, 10 µL of the labeling mixture were added to 100 µL of mouse or human plasma (mouse: BioIVT, United Kingdom, human: Sigma Aldrich, Germany). The mixture was left for 15 min at room temperature. Afterwards, the plasma was loaded into an ultrafiltration device (Amicon Ultra 0.5ml - 30 kDa, Merck, Germany) and centrifuged at 14,000 rpm for 30 min at r.t. The filtrate and the membrane were measured in a gamma counter (Wizard2, Perkin Elmer, Germany). The amount of plasma-bound compound was calculated based on the counts in the […] relative to the total counts (filtrate + membrane).

[3] = target: Human EphA5 (Homo sapiens, UniProt P54756); test: SPR homologue panel, EphA5; details: human EphA5, n=1; read-out: KD, no binding up to
[4] = target: T2, Human EphA7 (Homo sapiens, UniProt Q15375); test: SPR homologue panel, EphA7; details: human EphA7, n=1; read-out: KD, no binding up to
T2 construct: purchased R&D Systems 6756-A7
Experimental: as §1, §2
(§3) Peptide was prepared in PBS/0.05% Tween 20 with a final DMSO concentration of 0.5%. The top peptide concentration was 100 or 500 nM and 5 further 3-fold dilutions. […]

[5] = target: T3, Human EphA6 (Homo sapiens, UniProt Q9UF33); test: SPR homologue panel, EphA6; details: human EphA6, n=1; read-out: KD, no binding up to
T3 construct: purchased R&D Systems 5606-A6
T3 sequence (Q9UF33 23-1036): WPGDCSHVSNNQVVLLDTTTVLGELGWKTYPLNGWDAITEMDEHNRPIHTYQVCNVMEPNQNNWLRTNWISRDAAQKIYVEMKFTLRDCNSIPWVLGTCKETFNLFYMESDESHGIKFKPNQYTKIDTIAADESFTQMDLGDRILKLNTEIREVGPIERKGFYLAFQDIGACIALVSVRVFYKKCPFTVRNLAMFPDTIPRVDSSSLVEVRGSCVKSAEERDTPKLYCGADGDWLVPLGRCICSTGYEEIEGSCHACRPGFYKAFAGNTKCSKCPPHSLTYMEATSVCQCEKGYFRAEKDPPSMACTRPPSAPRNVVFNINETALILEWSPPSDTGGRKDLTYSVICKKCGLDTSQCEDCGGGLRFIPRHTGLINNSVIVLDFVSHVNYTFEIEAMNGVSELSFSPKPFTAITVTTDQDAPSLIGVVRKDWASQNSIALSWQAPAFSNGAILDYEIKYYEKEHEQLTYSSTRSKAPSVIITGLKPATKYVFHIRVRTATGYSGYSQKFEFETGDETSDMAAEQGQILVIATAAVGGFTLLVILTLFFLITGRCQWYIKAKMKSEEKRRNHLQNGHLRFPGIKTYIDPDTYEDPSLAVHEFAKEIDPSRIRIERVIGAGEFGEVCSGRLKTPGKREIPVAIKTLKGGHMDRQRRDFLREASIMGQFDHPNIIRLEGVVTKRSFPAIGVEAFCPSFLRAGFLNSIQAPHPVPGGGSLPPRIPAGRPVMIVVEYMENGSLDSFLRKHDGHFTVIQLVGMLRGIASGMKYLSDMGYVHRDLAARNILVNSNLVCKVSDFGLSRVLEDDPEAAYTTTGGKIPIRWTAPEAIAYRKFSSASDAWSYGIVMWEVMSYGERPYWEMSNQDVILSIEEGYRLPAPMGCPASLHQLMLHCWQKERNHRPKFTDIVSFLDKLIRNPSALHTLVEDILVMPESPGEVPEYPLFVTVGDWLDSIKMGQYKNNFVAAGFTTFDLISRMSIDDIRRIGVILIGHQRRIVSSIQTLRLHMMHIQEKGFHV
Experimental: as §1, §2, §3

T1 sequence (Q03145 with tags, fused parts or gaps limits assumed): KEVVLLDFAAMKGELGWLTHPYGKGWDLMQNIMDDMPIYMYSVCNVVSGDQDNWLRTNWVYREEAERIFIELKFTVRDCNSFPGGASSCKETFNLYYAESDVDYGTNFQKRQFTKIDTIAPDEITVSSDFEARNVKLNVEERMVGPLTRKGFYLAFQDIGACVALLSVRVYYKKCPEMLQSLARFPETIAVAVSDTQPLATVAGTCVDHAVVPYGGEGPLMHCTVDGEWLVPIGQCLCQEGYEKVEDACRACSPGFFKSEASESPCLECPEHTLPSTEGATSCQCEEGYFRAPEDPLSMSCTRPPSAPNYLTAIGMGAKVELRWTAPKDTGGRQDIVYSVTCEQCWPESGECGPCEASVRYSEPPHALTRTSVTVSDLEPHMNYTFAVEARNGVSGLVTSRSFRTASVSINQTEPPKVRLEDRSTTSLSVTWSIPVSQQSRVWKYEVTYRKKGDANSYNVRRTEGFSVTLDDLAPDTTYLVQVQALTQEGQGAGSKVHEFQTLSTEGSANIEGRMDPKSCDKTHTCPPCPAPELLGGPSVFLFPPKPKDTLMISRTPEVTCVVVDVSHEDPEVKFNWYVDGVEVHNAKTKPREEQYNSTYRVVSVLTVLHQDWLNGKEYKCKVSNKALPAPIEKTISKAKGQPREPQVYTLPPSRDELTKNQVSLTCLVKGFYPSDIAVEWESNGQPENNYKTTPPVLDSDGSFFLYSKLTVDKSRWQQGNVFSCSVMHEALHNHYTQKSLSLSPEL
Chain of Human EphA5 (P54756 25-1037): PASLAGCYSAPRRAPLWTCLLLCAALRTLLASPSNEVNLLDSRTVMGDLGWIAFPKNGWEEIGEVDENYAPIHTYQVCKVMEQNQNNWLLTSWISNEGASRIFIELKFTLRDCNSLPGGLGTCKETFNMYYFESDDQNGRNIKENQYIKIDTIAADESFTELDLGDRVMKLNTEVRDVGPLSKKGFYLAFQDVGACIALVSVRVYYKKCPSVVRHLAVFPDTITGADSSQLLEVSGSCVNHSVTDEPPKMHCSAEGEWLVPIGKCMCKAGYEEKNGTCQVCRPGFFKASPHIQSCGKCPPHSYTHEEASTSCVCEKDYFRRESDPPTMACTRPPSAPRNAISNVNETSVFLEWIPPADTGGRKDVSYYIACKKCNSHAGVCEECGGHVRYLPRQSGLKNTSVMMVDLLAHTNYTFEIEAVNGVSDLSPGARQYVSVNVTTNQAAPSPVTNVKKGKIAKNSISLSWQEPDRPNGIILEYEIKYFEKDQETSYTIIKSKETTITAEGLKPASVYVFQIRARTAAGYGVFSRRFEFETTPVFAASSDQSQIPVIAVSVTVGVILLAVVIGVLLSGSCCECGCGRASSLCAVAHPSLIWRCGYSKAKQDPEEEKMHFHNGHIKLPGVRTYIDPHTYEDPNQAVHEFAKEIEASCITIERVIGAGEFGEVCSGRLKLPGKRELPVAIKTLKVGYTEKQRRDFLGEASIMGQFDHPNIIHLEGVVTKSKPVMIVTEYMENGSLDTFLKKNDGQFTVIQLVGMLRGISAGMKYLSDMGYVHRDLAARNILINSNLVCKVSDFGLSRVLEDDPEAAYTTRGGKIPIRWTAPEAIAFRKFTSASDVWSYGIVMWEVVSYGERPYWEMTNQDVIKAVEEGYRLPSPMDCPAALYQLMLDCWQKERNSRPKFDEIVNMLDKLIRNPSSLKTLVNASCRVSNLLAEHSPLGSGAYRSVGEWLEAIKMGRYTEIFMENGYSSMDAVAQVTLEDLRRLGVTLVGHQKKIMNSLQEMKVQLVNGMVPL
T2 sequence (Q15375 28-998): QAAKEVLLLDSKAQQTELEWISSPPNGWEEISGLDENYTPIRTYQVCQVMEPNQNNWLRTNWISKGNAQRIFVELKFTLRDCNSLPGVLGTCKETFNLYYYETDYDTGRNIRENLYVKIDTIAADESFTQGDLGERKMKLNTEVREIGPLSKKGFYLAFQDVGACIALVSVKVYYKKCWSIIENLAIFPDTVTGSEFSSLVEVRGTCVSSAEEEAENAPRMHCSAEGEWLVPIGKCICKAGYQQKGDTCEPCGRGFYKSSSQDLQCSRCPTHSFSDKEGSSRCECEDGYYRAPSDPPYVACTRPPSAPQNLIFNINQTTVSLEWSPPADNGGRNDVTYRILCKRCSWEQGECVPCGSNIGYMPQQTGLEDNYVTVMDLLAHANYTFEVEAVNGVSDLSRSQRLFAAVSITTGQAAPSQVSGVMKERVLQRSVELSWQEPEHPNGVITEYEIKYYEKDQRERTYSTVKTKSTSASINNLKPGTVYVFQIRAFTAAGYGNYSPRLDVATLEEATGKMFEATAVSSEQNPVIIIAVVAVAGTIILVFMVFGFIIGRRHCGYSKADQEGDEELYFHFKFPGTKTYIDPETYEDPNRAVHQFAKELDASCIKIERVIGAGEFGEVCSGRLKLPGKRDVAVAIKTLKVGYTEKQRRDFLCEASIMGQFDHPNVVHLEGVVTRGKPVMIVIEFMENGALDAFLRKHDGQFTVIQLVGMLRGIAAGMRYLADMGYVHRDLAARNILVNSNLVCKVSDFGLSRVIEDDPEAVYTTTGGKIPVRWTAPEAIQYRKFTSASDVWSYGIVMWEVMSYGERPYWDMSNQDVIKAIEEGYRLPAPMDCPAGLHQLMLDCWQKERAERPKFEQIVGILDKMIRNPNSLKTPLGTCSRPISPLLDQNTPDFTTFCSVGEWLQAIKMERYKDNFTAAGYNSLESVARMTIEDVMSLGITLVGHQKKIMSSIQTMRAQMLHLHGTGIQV

SMILES: CC(C)C[C@@H]1NC(=O)[C@@H]2CSCCC(=O)N3CN(CN(C3)C(=O)CCSC[C@H](NC(=O)[C@H](CC(=O)O)NC(=O)[C@H](CCCCNC(=N)N)NC(=O)[C@H](C)NC(=O)CN(C)C(=O)CN(C)C(=O)CN(C)C(=O)CN(C)C(=O)CN(C)C(=O)CN(C)C(=O)CN(C)C(=O)CN(C)C(=O)CN(C)C(=O)CN(C)C(=O)CCNC(=O)CN3CCN(CC(=O)O)CCN(CC(=O)O)CCN(CC(=O)O)CC3)C(=O)N3C[C@H](O)C[C@H]3C(=O)N[C@@H](CC3CCC3)C(=O)N[C@@H](C(C)C)C(=O)N[C@@H](CC(N)=O)C(=O)N3CCC[C@H]3C(=O)N[C@@H](CC(C)C)C(=O)N2)C(=O)CCSC[C@@H](C(N)=O)NC(=O)[C@H](CCCCNC(=N)N)NC(=O)[C@H](Cc2c[nH]c3ccccc23)NC(=O)[C@@H](CC(=O)O)NC(=O)[C@@H]2CCCN2C(=O)[C@H](Cc2c[nH]cn2)NC1=O [BCY18469, [-DOTA]-[B-Ala]-[Sar10]-Ala-[HArg]-Asp-Cys-[HyP]-[Cba]-Val-Asn-Pro-Leu-Cys-Leu-His-Pro-[dAsp]-Trp-[HArg]-Cys-CONH2] ({DOTA-βAla}-[Sar][Sar][Sar][Sar][Sar][Sar][Sar][Sar][Sar][Sar]A[hArg]DC[Hyp][Cba]VNPLCLHP[dD]W[hArg]C-NH2; linker 14-21-28 via TATA)
- Kd ([1]; mouse EphA2, 25°C): 0.00382 ± 0.00056 µM
- kon ([1]; mouse EphA2, n=2, read-out: ka): 419000 M⁻¹ s⁻¹
- fraction unbound at 15 min ([2]; human, Plasma protein binding (% bound peptide)): 0.567
- fraction unbound at 15 min ([2]; mouse): 0.489
- Kd [3]: > 5 µM
- Kd [4]: > 5 µM
- Kd [5]: > 5 µM
